Where a name gives a salt, the structure may show the parent alone.

The experiment has as its target Autotaxin (Homo sapiens (Human), UniProt Q13822). Nature of the experiment: Autotaxin LPC Cascade Assay. Type of experiment: biochemical. The settings on record: Autotaxin 5 nM, LPC 100 μM, choline oxidase/HRP/Ampliflu Red fluorescence read-out, 2% DMSO, RT; read-out: IC50 ATX Activity. In a few lines:
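Choline liberated from LPC by autotaxin during 1 h, after a 10-min RT compound preincubation, was converted through choline oxidase/HRP to a fluorescent Ampliflu Red product.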
What is called IC50 is the concentration at which inhibition is half-maximal. Consider `CC(C)[C@@H](NC(=O)c1cc(C2CC2)ccc1F)C(=O)N1CCC2(CC1)C(=O)N(C)CN2c1ccc(C(=O)O)cc1` [Example 153, (R)-4-(8-(2-(5-Cyclopropyl-2-fluorobenzamido)-3-methylbutanoyl)-3-methyl-4-oxo-1,3,8-triazaspiro[4.5]decan-1-yl)benzoic Acid], for which the IC50 was < 500 nM. Turning to `CC(C)[C@@H](NC(=O)c1cc(C(F)(F)F)ccc1F)C(=O)N1CCC2(CC1)C(=O)N(C)CN2c1ccc(C(=O)O)c(Cl)c1` [Example 154, (R)-2-Chloro-4-(8-(2-(2-fluoro-5-(trifluoromethyl)benzamido)-3-methylbutanoyl)-3-methyl-4-oxo-1,3,8-triazaspiro[4.5]decan-1-yl)benzoic Acid], the half-maximal inhibitory concentration (IC50) was < 500 nM. As for `CC(C)[C@@H](NC(=O)c1cc(C(F)(F)F)ccc1F)C(=O)N1CCC2(CC1)C(=O)N(CC1CC1)CN2c1ccc(C(=O)O)cc1` [Example 155, (R)-4-(3-(Cyclopropylmethyl)-8-(2-(2-fluoro-5-(trifluoromethyl)benzamido)-3-methylbutanoyl)-4-oxo-1,3,8-triazaspiro[4.5]decan-1-yl)benzoic Acid], the half-inhibitory concentration (IC50) was < 500 nM. For `CN1CN(c2ccc(C(=O)O)cc2)C2(CCN(C(=O)[C@H](NC(=O)c3cc(C(F)(F)F)ccc3F)C3CCCC3)CC2)C1=O` [Example 156, (R)-4-(8-(2-Cyclopentyl-2-(2-fluoro-5-(trifluoromethyl)benzamido)acetyl)-3-methyl-4-oxo-1,3,8-triazaspiro[4.5]decan-1-yl)benzoic Acid], the IC50 is < 500 nM. Turning to `CC(C)[C@@H](NC(=O)c1cc(C(F)(F)F)ccc1F)C(=O)N1CCC2(CC1)C(=O)N(C)CN2c1ccc(C(N)=O)cc1` [Example 157, (R)—N-(1-(1-(4-Carbamoylphenyl)-3-methyl-4-oxo-1,3,8-triazaspiro[4.5]decan-8-yl)-3-methyl-1-oxobutan-2-yl)-2-fluoro-5-(trifluoromethyl)benzamide], the IC50 was < 500 nM. Then `Cc1cc(N2CN(C)C(=O)C23CCN(C(=O)[C@H](NC(=O)c2cc(C(F)(F)F)ccc2F)C(C)C)CC3)ccc1C(=O)O` [Example 158, (R)-4-(8-(2-(2-Fluoro-5-(trifluoromethyl)benzamido)-3-methylbutanoyl)-3-methy-4-oxo-1,3,8-triazaspiro[4.5]decan-1-yl)-2-methylbenzoic Acid], with ≥ 1000 nM.

Turning to `CN1CN(c2ccc(C(=O)O)cc2)C2(CCN(C(=O)[C@H](NC(=O)c3cc(C(F)(F)F)ccc3F)C(C)(C)C)CC2)C1=O` [Example 159], the IC50 was ≥ 1000 nM. As to `CC(C)[C@@H](NC(=O)c1cc(Cl)cc(C(F)(F)F)c1)C(=O)N1CCC2(CC1)C(=O)N(C)CN2c1ccc(C(=O)O)cc1` [Example 160, (R)-4-(8-(2-(3-Chloro-5-(trifluoromethyl)benzamido)-3-methylbutanoyl)-3-methyl-4-oxo-1,3,8-triazaspiro[4.5]decan-1-yl)benzoic Acid], the IC50 is < 500 nM. With `Cc1ccc(C(F)(F)F)cc1C(=O)N[C@@H](C(=O)N1CCC2(CC1)C(=O)N(C)CN2c1ccc(C(=O)O)cc1)C(C)C` [Example 161, (R)-4-(3-Methyl-8-(3-methyl-2-(2-methyl-5-(trifluoromethyl)benzamido)butanoyl)-4-oxo-1,3,8-triazaspiro[4.5]decan-1-yl)benzoic Acid], the IC50 is 500 to 1000 nM.

In the case of `CC(C)[C@@H](NC(=O)c1cc(OC(F)(F)F)ccc1F)C(=O)N1CCC2(CC1)C(=O)N(C)CN2c1ccc(C(=O)O)cc1` [Example 162, (R)-4-(8-(2-(2-Fluoro-5-(trifluoromethoxy)benzamido)-3-methylbutanoyl)-3-methyl-4-oxo-1,3,8-triazaspiro[4.5]decan-1-yl)benzoic Acid], the IC50 is < 500 nM. Regarding `COc1ccc(F)c(C(=O)N[C@@H](C(=O)N2CCC3(CC2)C(=O)N(C)CN3c2ccc(C(=O)O)cc2)C(C)C)c1` [Example 163, (R)-4-(8-(2-(2-Fluoro-5-methoxybenzamido)-3-methylbutanoyl)-3-methyl-4-oxo-1,3,8-triazaspiro[4.5]decan-1-yl)benzoic Acid], the IC50 is < 500 nM. With `CC(C)[C@@H](NC(=O)C12CC3CC(CC(C3)C1)C2)C(=O)N1CCC2(CC1)C(=O)N(C)CN2c1ccc(C(=O)O)cc1` [Example 164, (R)-4-(8-(2-(1-Admantanecarboxamido)-3-methylbutanoyl)-3-methyl-4-oxo-1,3,8-triazaspiro[4.5]decan-1-yl)benzoic Acid], the IC50 is ≥ 1000 nM.

Turning to `CC(C)[C@@H](NC(=O)c1cc(OC(F)F)ccc1F)C(=O)N1CCC2(CC1)C(=O)N(C)CN2c1ccc(C(=O)O)cc1` [Example 165, (R)-4-(8-(2-(5-(Difluoromethoxy)-2-fluorobenzamido)-3-methylbutanoyl)-3-methyl-4-oxo-1,3,8-triazaspiro[4.5]decan-1-yl)benzoic Acid], the IC50 was < 500 nM. For the compound `CC(C)[C@@H](NC(=O)c1cc(OC(F)F)ccc1F)C(=O)N1CCC2(CC1)C(=O)N(C)C(=O)N2c1ccc(C(=O)O)cc1` [Example 166, (R)-4-(8-(2-(5-(Difluoromethoxy)-2-fluorobenzamido)-3-methylbutanoyl)-3-methyl-2,4-dioxo-1,3,8-triazaspiro[4.5]decan-1-yl)benzoic Acid], the half-inhibitory concentration (IC50) was < 500 nM. Under `CC(C)[C@@H](NC(=O)c1cc(OC(F)(F)F)ccc1F)C(=O)N1CCC2(CC1)C(=O)N(C)C(=O)N2c1ccc(C(=O)O)cc1` [Example 167, (R)-4-(8-(2-(2-Fluoro-5-(trifluoromethoxy)benzamido)-3-methylbutanoyl)-3-methyl-2,4-dioxo-1,3,8-triazaspiro[4.5]decan-1-yl)benzoic Acid] stands < 500 nM; under `CCc1ccc(F)c(C(=O)N[C@@H](C(=O)N2CCC3(CC2)C(=O)N(C)CN3c2ccc(OCC(=O)O)cc2)C(C)C)c1` [Example 168, (R)-2-(4-(8-(2-(5-Ethyl-2-fluorobenzamido)-3-methylbutanoyl)-3-methyl-4-oxo-1,3,8-triazaspiro[4.5]decan-1-yl)phenoxy)acetic Acid], < 500 nM; under `CCc1ccc(F)c(C(=O)N[C@@H](C(=O)N2CCC3(CC2)C(=O)N(C)CN3c2ccc(OCC(N)=O)cc2)C(C)C)c1` [Example 169, (R)—N-(1-(1-(4-(2-Amino-2-oxoethoxy)phenyl)-3-methyl-4-oxo-1,3,8-triazaspiro[4.5]decan-8-yl)-3-methyl-1-oxobutan-2-yl)-5-ethyl-2-fluorobenzamide], < 500 nM. As to `CCc1ccc(F)c(C(=O)N[C@@H](C(=O)N2CCC3(CC2)C(=O)N(C)CN3c2ccc(OCC#N)cc2)C(C)C)c1` [Example 170, (R)—N-(1-(1-(4-(Cyanomethoxy)phenyl)-3-methyl-4-oxo-1,3,8-triazaspiro[4.5]decan-8-yl)-3-methyl-1-oxobutan-2-yl)-5-ethyl-2-fluorobenzamide], the IC50 is < 500 nM. Regarding `CC(C)[C@@H](NC(=O)c1cc(C(F)(F)F)ccc1F)C(=O)N1CCC2(CC1)C(=O)N(C)CN2c1ccc(OCCN(C)C)cc1` [Example 171, (R)—N-(1-(1-(4-(2-(Dimethylamino)ethoxy)phenyl)-3-methyl-4-oxo-1,3,8-triazaspiro[4.5]decan-8-yl)-3-methyl-1-oxobutan-2-yl)-2-fluoro-5-(trifluoromethyl)benzamide trifluoroacetic Acid Salt], the IC50 is < 500 nM. With `CCc1ccc(F)c(C(=O)N[C@@H](C(=O)N2CCC3(CC2)C(=O)N(C)CN3c2ccc(NC(C)=O)cc2)C(C)C)c1` [Example 172, (R)—N-(1-(1-(4-Acetamidophenyl)-3-methyl-4-oxo-1,3,8-triazaspiro[4.5]decan-8-yl)-3-methyl-1-oxobutan-2-yl)-5-ethyl-2-fluorobenzamide], the IC50 is < 500 nM. On to `CCc1ccc(F)c(C(=O)N[C@@H](C(=O)N2CCC3(CC2)C(=O)N(C)CN3c2ccc(NS(C)(=O)=O)cc2)C(C)C)c1` [Example 173, (R)-5-Ethyl-2-fluoro-N-(3-methyl-1-(3-methyl-1-(4-(methylsulfonamido)phenyl)-4-oxo-1,3,8-triazaspiro[4.5]decan-8-yl)-1-oxobutan-2-yl)benzamide], for which the IC50 is < 500 nM.

For the compound `CC(C)[C@@H](NC(=O)c1cc(C(F)(F)F)ccc1F)C(=O)N1CCC2(CC1)C(=O)N(C)CN2c1ccc(NS(C)(=O)=O)cc1` [Example 174, (R)-2-Fluoro-N-(3-methyl-1-(3-methyl-1-(4-(methylsulfonamido)phenyl)-4-oxo-1,3,8-triazaspiro[4.5]decan-8-yl)-1-oxobutan-2-yl)-5-(trifluoromethyl)benzamide], the IC50 was < 500 nM. On to `COC(=O)Nc1ccc(N2CN(C)C(=O)C23CCN(C(=O)[C@H](NC(=O)c2cc(C(F)(F)F)ccc2F)C(C)C)CC3)cc1` [Example 175, (R)-Methyl-4-(8-(2-(2-fluoro-5-(trifluoromethyl)benzamido)-3-methylbutanoyl)-3-methyl-4-oxo-1,3,8-triazaspiro[4.5]decan-1-yl)phenylcarbamate], for which the IC50 is < 500 nM. In the case of `Cc1cc(F)cc(C(=O)N[C@@H](C(=O)N2CCC3(CC2)C(=O)N(CC(=O)O)CN3c2ccccc2)C(C)C)c1` [Example 176, (R)-2-(8-(2-(3-Fluoro-5-methylbenzamido)-3-methylbutanoyl)-4-oxo-1-phenyl-1,3,8-triazaspiro[4.5]decan-3-yl)acetic Acid], the IC50 was in the range of 500 to 1000 nM.

Consider `Cc1cccc(C(=O)N[C@@H](C(=O)N2CCC3(CC2)C(=O)N(CCCS(C)(=O)=O)CN3c2ccccc2)C(C)C)c1F` [Example 177, (R)-2-Fluoro-3-methyl-N-(3-methyl-1-(3-(3-(methylsulfonyl)propyl)-4-oxo-1-phenyl-1,3,8-triazaspiro[4.5]decan-8-yl)-1-oxobutan-2-yl)benzamide], for which the IC50 was < 500 nM. `CCc1ccc(F)c(C(=O)N[C@@H](C(=O)N2CCC3(CC2)C(=O)N(CC#N)CN3c2ccccc2)C(C)C)c1` [Example 178, (R)—N-(1-(3-(Cyanomethyl)-4-oxo-1-phenyl-1,3,8-triazaspiro[4.5]decan-8-yl)-3-methyl-1-oxobutan-2-yl)-5-ethyl-2-fluorobenzamide]: the IC50 was < 500 nM.

For the origin of these results see US10233182B2, “Substituted spirocyclic inhibitors of autotaxin” (X-Rx, Inc., priority 2014, dated 2019).
